Experimental data: PMC10740580, “Benzothiazole-Phthalimide Hybrids as Anti-Breast Cancer and Antimicrobial Agents” (Antibiotics, 2023)
Values after ≈ are worked out from the molar mass of the structure shown. Values belong to the molecule of their own block, whether it stands above or below them.

Legend:
Candida albicans 10231 = experiment: Antifungal microdilution, C. albicans ATCC 10231; format: cell-based; details: microdilution CLSI M27-A3, 48 h, 37 °C
Experimental: (§1) In accordance with CLSI guidelines, compounds 3a–h were tested against a variety of fungal strains (Candida albicans 10231, Candida albicans 90028, Candida glabrata 15126, and Candida parapsilosis 22019) belonging to the ATCC collection. Amphotericin B was utilized as a reference drug. A similar trend of results, or even better than that obtained against bacteria, was assessed against fungal strains. […] Also, in this case, compound 3h emerged as the best of the series, with MICs of 16 μg/mL against Candida glabrata and Candida parapsilosis strains and 32 μg/mL against Candida albicans strains.
(§2) A microdilution technique described by the Clinical and Laboratory Standards Institute (CLSI, M27-A3) was used to assess the antifungal activity. The following fungal strains, belonging to the ATCC collection and available as freeze-dried discs, were used: C. albicans ATCC 10231, C. albicans ATCC 90028, C. glabrata ATCC 15126, and C. parapsilosis ATCC 22019. Stock solutions were prepared and preserved with purity as previously described for the antibacterial studies. Each yeast strain’s pre-cultures were made in Sabouraud broth (SAB) and allowed to grow until they stopped at 37 °C. By using a spectrophotometric technique (530 nm, range 0.12–0.15), the turbidity of the yeast stock suspension was calibrated to 0.5 McFarland Standard. Next, the standardized suspension was diluted first at 1:50 with SAB and then at 1:20 in the same medium to have […]. A total of 100 µL of inoculum was seeded into each well. As a control for growth, several wells containing only inoculated broth were prepared. The plates were incubated for 48 h at 37 °C, and the MIC values were calculated as the final well with no fungal growth. […] MIC values were observed based on the absence of fungal growth in the final well. The MICs were calculated by conducting the antifungal test three times in duplicate. As a control, amphotericin B was used.

[1] = tested on: Candida parapsilosis 22019; experiment: Antifungal microdilution, C. parapsilosis ATCC 22019; format: cell-based; details: microdilution CLSI M27-A3, 48 h, 37 °C, read-out: MIC C.p. 22019
Experimental: as §1, §2

Candida albicans 90028 = experiment: Antifungal microdilution, C. albicans ATCC 90028; format: cell-based; details: microdilution CLSI M27-A3, 48 h, 37 °C
Experimental: as §1, §2

Candida glabrata 15126 = experiment: Antifungal microdilution, C. glabrata ATCC 15126; format: cell-based; details: Nakaseomyces glabratus, microdilution CLSI M27-A3, 48 h, 37 °C, read-out: MIC C.g. 15126
Experimental: as §1, §2

[2] = tested on: Enterococcus faecalis 29212; experiment: Broth microdilution, E. faecalis ATCC 29212; format: cell-based; details: 24 h, 37 °C, read-out: MIC E.f. 29212
From the text: (§3) Compounds 3a–h were examined in accordance with the Clinical Laboratory Standards Institute (CLSI) recommendations, by means of the broth microdilution method, against gram-positive bacteria (Staphylococcus aureus 25923, Staphylococcus aureus 29213, Staphylococcus aureus 43300, Enterococcus faecalis 29212) and gram-negative bacteria (Escherichia coli 25922, Klebsiella pneumoniae 13883, Pseudomonas aeruginosa 27853) belonging to the ATCC collection, using levofloxacin as a reference drug. Table 3 lists the results, expressed as MIC (µg/mL). […] The lack of activity observed for compound 3d could be conceivably due to its poor solubility in the culture medium containing the inoculum.
(§4) Following the recommendations of the CLSI (Clinical and Laboratory Standards Institute, 2012), the broth microdilution method was used to determine the in vitro minimum inhibitory concentrations (MICs, µg/mL).. The concentration of the investigated compounds was set to its highest value to create stock solutions. Then, the stock solutions were diluted 1:10 with Cation-Adjusted Mueller Hinton Broth (Oxoid, Milan, Italy). After that, a series of concentrations from 512 µg/mL to […] were obtained in the wells by performing two-fold serial dilutions in the appropriate test medium. The diluent used to create the stock solution was 100% DMSO. We used the following bacterial strains from the ATCC collection that were available as freeze-dried discs: gram-positive strains such as S. aureus ATCC 25923, 29213, and 43300, and E. faecalis ATCC 29212, and gram-negative ones such as E. coli ATCC 25922, K. pneuomoniae ATCC 13883, and P. aeruginosa ATCC 27853. To preserve the purity of cultures and to allow their reproducibility, cryovials of all microbial strains were set up in the medium and stored at −80 °C. Mueller Hinton Broth (MHB) was used to prepare pre-cultures of each bacterial strain, which were then incubated for 3–5 h at 37 °C. In accordance with CLSI procedure M7-A9, the turbidity of the bacterial cell suspension was calibrated to 0.5 McFarland Standard using a spectrophotometric approach (OD625 nm 0.08–0.10). The standardized suspension was then further diluted (1:100) with MHB to reach 1–2 × 10^6 CFU/mL. A 200 µL aliquot of the final inoculum was inserted into each well. As a control for growth, several wells containing only inoculated broth were prepared. The plates were incubated at 37 °C for 24 h, and the MIC values were calculated as the lowest concentration of compounds at which there was no optically detectable bacteria growth. Each experiment was carried out in duplicate and repeated twice to determine the MICs. Levofloxacin served as the study’s standard reference antibiotic. Additionally, the antibacterial activity of DMSO alone (used as a diluent for the investigated compounds) was examined; therefore, volumes of this solvent with a concentration of less than 5% were utilized throughout the experimentation.

[3] = tested on: Klebsiella pneumoniae 13883; experiment: Broth microdilution, K. pneumoniae ATCC 13883; format: cell-based; details: 24 h, 37 °C, read-out: MIC K.p. 13883
From the text: as §3, §4

[4] = tested on: Pseudomonas aeruginosa 27853; experiment: Broth microdilution, P. aeruginosa ATCC 27853; format: cell-based; details: 24 h, 37 °C
From the text: as §3, §4

Escherichia coli 25922 = experiment: Broth microdilution, E. coli ATCC 25922; format: cell-based; details: 24 h, 37 °C
From the text: as §3, §4

[5] = tested on: Staphylococcus aureus 29213; experiment: Broth microdilution, S. aureus ATCC 29213; format: cell-based; details: 24 h, 37 °C
From the text: as §3, §4

[6] = tested on: Staphylococcus aureus 25923; experiment: Broth microdilution, S. aureus ATCC 25923; format: cell-based; details: Staphylococcus aureus, 25923, 24 h, 37 °C
From the text: as §3, §4

[7] = tested on: Acinetobacter baumanii 19606; experiment: Broth microdilution, A. baumanii 19606; format: cell-based; details: Acinetobacter baumannii, 24 h, 37 °C, read-out: MIC A.b. 19606
[8] = tested on: Staphylococcus aureus 43300; experiment: Broth microdilution, S. aureus ATCC 43300; format: cell-based; details: 24 h, 37 °C, methicillin-resistant
From the text: as §3, §4

MDA-MB-231 cells [9] = experiment: TUNEL assay (DNA damage); format: cell-based, human; details: 50 μM, 24 h
Experimental: To further assess the effect of 3h treatment in MDA-MB-231, the terminal deoxynucleotidyl transferase dUTP nick-end labeling (TUNEL) assay was used. Thus, 3h or Thalidomide, as reference drug, were administered to the cells, for 24 h, at 25 and 50 μM concentrations, respectively, or with only the vehicle (DMSO), as negative control and then processed as outlined in the experimental section. […] Nuclei were counterstained with blue DAPI (Figure 2, panels A), and merge channels were also shown (Figure 2, panels C), where it is evident the perfect superposition of green and blue signals. […] Images taken from bright fields were also included (Figure 2, panels D).
DNA damage and cell death were analyzed by means of the TUNEL assay as indicated by the manufacturer’s protocols (CF™488A TUNEL Assay Apoptosis Detection Kit, Biotium, Hayward, CA, USA), with few changes, as in [42]. DAPI staining (0.2 μg/mL, Sigma Aldrich, Milan, Italy) was adopted for cell nuclei. Observations were made at 20× magnification using a fluorescence microscope (Leica DM 6000, Leica Microsystem Srl, Buccinasco, Italy). LAS-X software (Version: 3.5.7.23225; Leica Microsystem Srl, Buccinasco, Italy) was employed for the acquisition and processing of the images. Images are representative of two separate experiments from which different fields were acquired.
Figure 2 TUNEL assay. […]

MDA-MB-231 cells [10] = experiment: MTT cell viability assay, MDA-MB-231; format: cell-based, human; details: Homo sapiens, MDA-MB-231, 72 h exposure, mean ± SD
Experimental: (§5) The anticancer activity of the studied compounds (3a–h) was explored with regards to two human breast cancer cell lines, namely the estrogen receptor positive (ER+) MCF-7 cells and the triple negative MDA-MB-231 cells (ER-, PR-, and HER-2/Neu-). Cells were continuously exposed to the test substances for 72 h, after which their viability was assessed by means of the MTT assay. Table 2 lists the determined IC50 values for the investigated substances and the reference drug, thalidomide. […] Additionally, the same test for all the compounds has been performed on nonmalignant breast epithelial cells (MCF-10A) to ascertain their potential cytotoxicity.
(§6) The four cell lines used in this work (MCF-7, MDA-MB-231, MCF-10A, and 3T3-L1) were obtained from the American Type Culture Collection (ATCC, Manassas, VA, USA). All cell lines were maintained at 37 °C in a humidified atmosphere of 95% air and 5% CO2 and periodically screened for contamination. MCF-7, human breast cancer cells estrogen receptor (ER)-positive, and human breast cancer triple negative MDA-MB231 were grown in DMEM-F12 medium containing 2 mmol/L L-glutamine, 1 mg/mL penicillin–streptomycin, and 5% newborn calf serum (NCS) or 5% fetal bovine serum (FBS), respectively. MCF-10A human mammary epithelial cells were cultured in DMEM/F12 medium, supplemented with 5% horse serum (HS) (Eurobio, Les Ullis, Cedex, France), 100 U/mL penicillin/streptomycin, […], 20 ng/mL hEGF (human epidermal growth factor), […], and […] (Sigma-Aldrich, Milano, Italy). BALB/3T3 murine fibroblast cells were cultured in DMEM high glucose supplemented with 10% bovine calf serum (BCS), 1% L-glutamine, and 100 U/mL penicillin/streptomycin.
(§7) Cell viability was evaluated by means of the 3-(4,5-dimethylthiazol-2-y1)-2,5-diphenyltetra zolium bromide (MTT, Sigma-Aldrich, Milan, Italy) assay. On 48-well plates, cells were seeded, and they were cultured in complete medium. Before being treated, cells were starved in serum-free medium for 24 h to allow cell cycle synchronization. Subsequently, cells were exposed to increasing doses of each compound for 72 h in phenol-red-free media supplemented with 1% serum before fresh MTT was added to each well (final concentration: 0.5 mg/mL). Cells were lysed with DMSO after 2 h of incubation at 37 °C, and optical density at 570 nm was then determined with a microplate reader. Using GraphPad Prism 9 software (GraphPad Inc., San Diego, CA, USA), the mean absorbance for each sample was expressed as a percentage over the control and plotted vs. drug concentrations to establish the IC50 values. The given standard deviations (SDs) are indicative of three separate tests carried out in triplicate.

MCF-10A cells = experiment: MTT cell viability assay, nonmalignant MCF-10A; format: cell-based; details: Homo sapiens, 72 h exposure, nonmalignant breast epithelial cells, mean ± SD, read-out: IC50 MCF10-A
Experimental: as §5, §6, §7

MCF-7 cells = experiment: MTT cell viability assay, MCF-7; format: cell-based, human; details: Homo sapiens, MCF7, 72 h exposure, mean ± SD
Experimental: as §5, §6, §7

- MIC (Candida albicans 10231): 2 mg/L (≈ 2.16 µM)
- MIC [1]: 2 mg/L (≈ 2.16 µM)
- MIC (Candida albicans 90028): 1 mg/L (≈ 1.08 µM)
- MIC (Candida glabrata 15126): 2 mg/L (≈ 2.16 µM)
SMILES: C[C@@H]1[C@H](O)[C@@H](C)/C=C/C=C/C=C/C=C/C=C/C=C/C=C/[C@H](O[C@@H]2O[C@H](C)[C@@H](O)[C@H](N)[C@@H]2O)C[C@@H]2O[C@](O)(C[C@@H](O)C[C@@H](O)[C@H](O)CC[C@@H](O)C[C@@H](O)CC(=O)O[C@H]1C)C[C@H](O)[C@H]2C(=O)O [amph B, amphotericin B, reference compound]

- MIC [2]: 2 mg/L (≈ 5.53 µM)
- MIC [3]: 8 mg/L (≈ 22.1 µM)
- MIC [4]: 4 mg/L (≈ 11.1 µM)
- MIC (Escherichia coli 25922): 0.06 mg/L (≈ 0.166 µM)
- MIC [5]: 0.5 mg/L (≈ 1.38 µM)
- MIC [6]: 0.5 mg/L (≈ 1.38 µM)
- MIC [7]: 8 mg/L (≈ 22.1 µM)
- MIC [8]: 0.5 mg/L (≈ 1.38 µM)
SMILES: C[C@H]1COc2c(N3CCN(C)CC3)c(F)cc3c(=O)c(C(=O)O)cn1c23 [levofloxacin, reference compound]

- IC50 (MDA-MB-231 cells [10]): 413 ± 2 µM
- IC50 (MCF-7 cells): 360 ± 2 µM
SMILES: O=C1CCC(N2C(=O)c3ccccc3C2=O)C(=O)N1 (stereo not shown) [thalidomide, reference compound]
- DNA damage (TUNEL, green nuclear fluorescence) (MDA-MB-231 cells [9]): found to damage DNA
- IC50 (MCF-10A cells): > 500 µM
